Results taken from a melting point compilation (Tetko et al.; mined from patent text by program, amines drawn as free bases though some values may be those of a salt).

| Compound | melting point |
| --- | --- |
| CCOC(=O)C1C(c2ccc(OC)cc2)=NCC1c1ccc2c(c1)OCO2 (configuration not stated) | 80 to 81 °C |
| Nc1c(-c2ccc(-c3ccc(F)cc3)cc2)nc2ccc(F)cc2c1C(=O)O | 241 to 243 °C |
| CC(=O)NCC1CCC(C(=O)N2CC2C#N)CC1 (configuration not stated) | 92 to 94 °C |
| COCCc1ccc(-c2ccc3c(c2)C=C(C(=O)Nc2ccc(CN(C)C4CCOCC4)cc2)CCS3(=O)=O)cc1 | 216 to 219 °C |
| CCc1nc2c(N)nc3cc(OCCNC(=O)NC(C)C)ccc3c2n1CC1CCOCC1 | 223 to 225 °C |
| CCC(Oc1cccc(N(C)C)c1)C(=O)OC1CC(O)C=C2C=CC(C)C(CCC3CC(O)CC(=O)O3)C21 (mixture of isomers) | 124 to 126 °C |
| C=CCc1cc2c(c(CC=C)c1O)CCC(=O)N2CCCN1CCN(c2cccc(Cl)c2)CC1 | 118 °C |
| Cc1ccc(CC2CCN(C(=O)C(=O)Nc3ccc4c(c3)CC(=O)N4)CC2)cc1 | 235 to 237 °C |
| CCCCCCCC(=O)OCCCCCCOc1ccc(Nc2ccccc2)cc1 | 42 to 43 °C |
| CN1CCC(OC2c3ccccc3CCn3c2nc(-c2ccccc2)c3C=O)CC1 (configuration not stated) | 70 °C |
| O=S1NC(CCCc2ccc3ccccc3c2)=NO1 (configuration not stated) | 139 to 140 °C |
| CCn1cc(C(=O)C(=O)O)c2ccc(-c3ccc(OC(F)(F)F)cc3)cc21 | 204 to 205 °C |
| CCOC(=O)c1c(O)c2cnc(-c3ccccc3)nc2n(CCOC)c1=O | 178 to 179 °C |
| O=C1C2CC(c3ccc([N+](=O)[O-])cc3)(C2)C(=O)N1CC1CCCCC1 | 191 to 194 °C |
| COc1ccc(Cl)cc1CC1CNC(=O)CN(S(=O)(=O)c2ccc(Cl)cc2)C1=O (configuration not stated) | 110 to 112 °C |
| COC(=O)[C@@H](Cc1ccccc1)Oc1c(Br)cc(-c2c3ccccc3c(Br)c3sc(C)c(C)c23)cc1Br | 174 to 175 °C |
| CC(C)(C)OC(=O)C(C)(C)ON=C1C=CC=CC1CC(=O)O (configuration not stated) | 102 to 105 °C |
| Cc1ccc(S(=O)(=O)n2ccc3cc(F)ccc32)cc1 | 106 to 108 °C |
| O=C(Oc1ccccc1)c1ccc(NS(=O)(=O)c2ccccc2)cc1Cl | 130 to 140 °C |
| COC(=O)c1oc2ccc(OC)cc2c1OCc1ccccc1 | 81 to 84 °C |
| Nc1ncc(Oc2ccc(Cl)cc2)c(N2CCOCC2)n1 | 138 to 140 °C |
| CC(C)(C)NS(=O)(=O)c1c(Cl)cccc1-c1ccccc1 | 168 to 170 °C |
| CNC(=O)c1cccc(NC(=O)CC2CCCCC2)c1 | 183 °C |
| O=C(NCc1ccc(Cl)cc1)c1cnc2ccc(I)cc2c1O | 297 to 299 °C |
| Cc1cc(-c2cc(C(F)(F)F)n3ncc(C(=O)Nc4cccc(S(=O)(=O)N5CCOCC5)c4)c3n2)ccc1Cl | 251 °C |

| Compound | melting point |
| --- | --- |
| CN1CC(CCNC(=S)NC(=O)c2ccccc2)CC2c3cccc4[nH]cc(c34)CC21 (configuration not stated) | 205 to 207 °C |
| Cc1nc(N2CCC(Cc3ccc(F)cc3)C2=O)sc1C(=O)NCc1cccnc1 (configuration not stated) | 169 to 170 °C |
| O=[N+]([O-])c1cccc(/C=C/c2ccc3ccccc3n2)c1 | 145 to 147 °C |
| CCN1C(=O)C(C)(C)C(=O)N(C)c2cc(CN(CCn3ccc4ccsc4c3=O)Cc3cnccc3C)ccc21 | 138 to 142 °C |
| COCOc1cc(Cl)ccc1-c1cc(-c2cccc(C(=O)NCCCn3ccnc3)c2)c(C#N)c(NC(=O)c2ccccc2OC)n1 | 100 to 101 °C |
| Nc1ccc(-c2ccncc2)cn1 | 192 to 195 °C |
| CC(C)=CCOc1c(I)cc(C(C)O)nc1Cl (configuration not stated) | 80 to 81 °C |
| O=[N+]([O-])c1ccc(Cl)c(C=Cc2nc3ccccc3o2)c1 | 230 °C |
| CCc1cc2ccccn2c1C(=O)c1ccc(OS(=O)(=O)c2ccc(C)cc2)cc1 | 165 °C |
| Cc1c(COc2cccc3c2CN(C2CCC(=O)NC2=O)C3=O)oc2ccccc12 (configuration not stated) | 210 to 212 °C |
| O=C1CC(c2ccc(OCc3ccccc3)cc2)=Nc2ccc(N3CCOCC3)cc21 | 320 to 323 °C |
| O=C1NCCc2c(OCCc3ccccc3)cccc21 | 149 to 150 °C |
| Cc1cc(COc2nn(Cc3ccccc3)cc2C=O)ccc1OCc1nc(-c2ccco2)oc1C | 121 to 122 °C |
| CON=C(c1ccccc1OCc1ccc(Cl)cc1Cl)n1ccnc1 | 122 to 123 °C |
| NC(=O)c1cc2c(cc1OCC1CCCCC1)OCCC[C@@H]2N | 145 to 146 °C |
| CCC(C)(C)OC(=O)N1CCC(c2ccc(COc3ccc(S(C)(=O)=O)cc3)nc2)CC1 | 114 to 115 °C |
| O=C(O)c1ccc2c(c1)S(=O)(=O)c1ccc(Cl)cc1C2=O | 352 to 355 °C |
| COC(C)c1ccc(C(=O)O)cc1 (single isomer, unassigned; (+)) | 99 to 102 °C |
| CCCCc1nc(C(=O)c2ccccc2)c(C#N)[nH]1 | 121 to 122 °C |
| CC(C)Cc1nc(Cc2ccccc2)c2c(c1O)COC2 | 174 to 175 °C |
| COCc1nnc2n1-c1sc(Cl)cc1C(c1ccccc1[N+](=O)[O-])=NC2 | 204 to 205 °C |
| CC(C)(C)c1cc(OCc2cccc(C#N)c2)cc(C(C)(C)C)c1O | 78 to 81 °C |
| CCOC(=O)CCNCC(O)COc1cccc(C)c1 (configuration not stated) | 57 °C |
| O=C(c1coc(-c2ccc(CCl)cc2)n1)N1CCCC1 | 126 to 128 °C |
| COC(=O)NC1=NCC(c2cc(Cl)ccc2Cl)CN1 (configuration not stated) | 231 to 234 °C |

| Compound | melting point |
| --- | --- |
| CSc1ccc(C(=O)c2ccc(F)cc2)[nH]1 | 112 to 113 °C |
| CCOc1ccc(C(=NO)c2ccc(OC)c(Cl)c2Cl)c(F)c1 | 188 to 189 °C |
| Cc1noc(NS(=O)(=O)c2ccc(-c3ccc4c(c3)OCO4)cc2)c1Br | 172 to 174 °C |
| CCc1cc(C(=O)c2ccccc2Cl)c(-n2c(C)nnc2CNC(=O)/C=C/c2ccccc2N)s1 | 141 to 143 °C |
| COC(=O)c1c(-c2ccc(C)cc2)ccc2ccccc12 | 109 to 111 °C |
| Cc1c(Br)c2c(c3c1C(c1ccc(C(C)C)cc1)CO3)CCC2 (configuration not stated) | 127 to 128 °C |
| CCCn1nc2c(N)nc3c(c2c1CC(C)(C)O)CCCC3 | 143 to 145 °C |
| CC(=O)NC1CC(C)(C)N(OC(C)=O)C(C)(C)C1 | 129 to 132 °C |
| O=CN(O)C(CCCO)CS(=O)(=O)c1ccc(-c2ccc(F)cc2)cc1 (configuration not stated) | 143 to 144 °C |
| CN(C)c1ccc(NC(=O)CCC2(c3ccc(Cl)cc3)Nc3cccnc3N2)cc1 (configuration not stated) | 216 to 218 °C |
| Cc1nc(C=Cc2nc3ccc(F)cc3c(=O)n2-c2cccnc2C)cs1 | 223 to 224 °C |
| COc1ccc(N2CCN(c3ccc(Nc4nnc(C)s4)cc3)CC2)cc1 | 277 °C |
| CC1(C)OC(=O)[C@@H](CC=O)O1 | 37 to 38 °C |
| COc1ccc2c(c1)c(C1CCN(Cc3ccc(OC)c(C(=O)O)c3)CC1)cn2CCc1ccsc1 | 229 to 230 °C |
| C=C1CSC2C(NC(=O)Cc3ccccc3)C(=O)N2C1C(=O)OC(c1ccccc1)c1ccccc1 (configuration not stated) | 144 to 147 °C |
| COc1cc2c(cc1OCc1ccccc1)CCCC(C(=O)N1CCN(C(=O)c3cc(OC)c(OC)c(OC)c3)CC1)=C2 | 140 to 142 °C |
| COc1cc(OC)nc(NC(=O)NS(=O)(=O)c2cccc3c2S(=O)(=O)N(C)C3)n1 | 229 to 231 °C |
| Cc1cc(N)c(Cl)c(C)n1 | 86 °C |
| CCNC(=O)/C=C/c1cnoc1-c1ccccc1 | 156 to 157 °C |
| CCOC(=O)c1cc(Cl)cc(N)c1Cl | 63 to 65 °C |
| COc1ccc(N(C(=O)CN2C(=O)C(Cc3n[nH]c4ncccc34)C(=O)N(c3ccccc3)c3ccccc32)C(C)C)cc1 (configuration not stated) | 156 to 158 °C |
| COc1c([N+](=O)[O-])cc(C=O)c(Cl)c1O | 130 °C |
| CCOC(=O)CNC(=O)c1nc2ccc(Cl)nn2n1 | 175 to 177 °C |
| CCCC(NS(=O)(=O)c1ccc(NC(C)=O)cc1)P(=O)(Oc1ccccc1)Oc1ccccc1 (configuration not stated) | 183 to 186 °C |
| COc1ccc(C(=O)c2ccc(F)cc2)c(F)c1 | 89.7 to 90.1 °C |

| Compound | melting point |
| --- | --- |
| O=c1[nH]c2ccc(C3=NOC(CCN4CCC(Cc5ccc(F)cc5)CC4)C3)cc2o1 (configuration not stated) | 254 to 258 °C |
| C#CCn1cc(Br)cnc1=O | 139 to 141 °C |
| COc1cc(-c2nc(N)sc2CCC2CCCCC2)c(OC)cc1Cl | 110 to 111 °C |
| CCCOc1ccc(NC2=C(C(=O)OCC)CCC2)cc1C1=NC(=O)C2=NN=NC2=N1 | 164 to 165 °C |
| CN1CCN(CCCNc2ncc3cc(-c4c(Cl)cccc4Cl)c(NC(=O)NCc4ccccc4)nc3n2)CC1 | 144 to 148 °C |
| CC(=S)NC[C@H]1CN(c2ccc(N3CCC(=O)N(C)CC3)c(F)c2)C(=O)O1 | 157 to 158 °C |
| CCNc1nc(NC(C)C)nc(OC)n1 | 95 to 96 °C |
| O=C(CNC(=O)c1ccc([N+](=O)[O-])c(I)c1)OCc1ccccc1 | 98 to 100 °C |
| CC(=O)N1CC(=O)NC(=O)N1c1cc(Cl)c(Oc2ccc(S(C)(=O)=O)cc2)c(Cl)c1 | 267 °C |
| Cc1c(C)c2c(c(C)c1N)CC(C)(CN1CCN(CCc3ccccc3)CC1)O2 (configuration not stated) | 99 to 100 °C |
| CCC(Nc1ccc(OC)nc1)n1nnc2ccccc21 (configuration not stated) | 109 to 110 °C |
| COc1cn(-c2cccc3c2OC(F)(F)O3)nc(-c2ccnn2-c2ccccc2)c1=O | 181 to 183 °C |
| OC1(CN2CC2)COc2ccccc2OC1 | 98 to 99.5 °C |
| CS(=O)(=O)c1ccc(C(=O)O)c(Cl)c1OC1COC1 | 180 to 183 °C |
| CC(C)CON(Cc1ccc(F)cc1)C(=O)C1=C(O)C(=O)N(C)C1 | 96 to 97 °C |
| CSC1CC(=O)N1CC(=O)O (single isomer, unassigned; (+)) | 117 to 118 °C |
| CNC(=O)C(=NOC)c1ccccc1COc1ncc(C(=O)O)cc1Cl | 189 to 195 °C |
| CCOC(=O)c1ccc(NC(=O)Nc2nnc(-c3cc(Cl)cc(Cl)c3O)s2)cc1 | > 300 °C |
| CS(=O)(=O)c1ccc(-c2cnn(CC(F)(F)F)c(=O)c2Nc2cccc(F)c2)cc1 | 156 to 158 °C |
| COc1ccc2c(C)c(-c3c(OC)cccc3OC(C)=O)c(=O)oc2c1 | 125 to 126 °C |
| CCN(CC)C(=O)CCc1nc(-c2ccccc2)nc2ccccc12 | 103 °C |
| COC(=O)c1nn2c(C)csc2c1SSc1c(C(=O)OC)nn2c(C)csc12 | 193 to 194 °C |
